EP1144368B1, “ACETYLENIC ALPHA-AMINO ACID-BASED SULFONAMIDE HYDROXAMIC ACID TACE INHIBITORS” (priority 1999, dated 2000)
Where two headings read alike, the source gives them in different places.

What was measured:
MMP-13 = MMP-13 (Homo sapiens, UniProt P45452); test: MMP-13 inhibition (thiopeptide or fluorescent peptide substrate); assay type: biochemical
MMP-1 = target: T1, MMP-1 (Homo sapiens, UniProt P03956); test: MMP-1 inhibition (thiopeptide or fluorescent peptide substrate); assay type: biochemical
T1 sequence (P03956 100-469): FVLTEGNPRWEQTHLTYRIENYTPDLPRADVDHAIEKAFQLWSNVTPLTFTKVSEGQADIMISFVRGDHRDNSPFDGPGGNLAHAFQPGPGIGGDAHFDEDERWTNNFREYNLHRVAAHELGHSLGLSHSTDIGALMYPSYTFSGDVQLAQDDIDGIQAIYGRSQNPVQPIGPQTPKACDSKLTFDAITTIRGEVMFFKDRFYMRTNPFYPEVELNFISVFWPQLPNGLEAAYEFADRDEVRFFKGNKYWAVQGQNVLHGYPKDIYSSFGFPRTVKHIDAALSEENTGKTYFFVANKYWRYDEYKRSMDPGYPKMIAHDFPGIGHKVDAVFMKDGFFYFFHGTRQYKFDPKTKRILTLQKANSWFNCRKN

THP-1 cells = test: THP-1 Soluble Protein Assay (LPS-stimulated; ELISA of TNF-a, TNF-R p75/80, TNF-R p55/60, IL-8); assay type: cell-based, human; settings: for inhibition at 3 µM: Homo sapiens
TACE = TACE (Homo sapiens, UniProt P78536); test: TACE inhibition (fluorescent peptidyl substrate); assay type: biochemical; settings: for inhibition at 1 µM: read-out: % Inhibition at 1 uM
[1] = THP-1, read-out: THP % inhibition @ 3 µM, 3 µM
[2] = In Vitro Inhibition of TACE, 1 uM
[3] = Table 15: In Vitro Inhibition of TACE
[4] = THP-1, 3 µM, read-out: THP % Inhibition @ 3µM

TACE, sequence (P78536 215-824): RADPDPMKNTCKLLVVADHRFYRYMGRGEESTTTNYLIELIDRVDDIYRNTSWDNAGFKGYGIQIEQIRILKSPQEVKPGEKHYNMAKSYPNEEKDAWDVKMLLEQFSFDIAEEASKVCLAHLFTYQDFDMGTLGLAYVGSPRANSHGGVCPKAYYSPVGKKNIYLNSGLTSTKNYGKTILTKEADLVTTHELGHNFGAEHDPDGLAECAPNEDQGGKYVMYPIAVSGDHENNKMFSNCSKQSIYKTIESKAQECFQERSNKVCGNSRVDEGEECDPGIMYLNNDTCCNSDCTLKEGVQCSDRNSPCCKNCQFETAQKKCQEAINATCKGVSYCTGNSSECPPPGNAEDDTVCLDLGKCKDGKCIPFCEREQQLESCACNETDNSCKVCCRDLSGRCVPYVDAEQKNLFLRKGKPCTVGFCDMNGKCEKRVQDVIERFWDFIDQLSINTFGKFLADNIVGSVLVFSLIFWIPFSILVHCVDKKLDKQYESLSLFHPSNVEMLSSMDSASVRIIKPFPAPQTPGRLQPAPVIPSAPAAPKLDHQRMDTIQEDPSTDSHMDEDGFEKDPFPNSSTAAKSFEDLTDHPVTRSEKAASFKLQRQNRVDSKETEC

| Compound | inhibition at 1 µM (TACE; [2]) | also measured |
| --- | --- | --- |
| 9-({[4-(2-Butynyloxy)phenyl]sulfonyl}-N-hydroxy-1-thia-4-azaspiro [5,5]undecane-5-carboxamide [Example 237] |  | IC50 (MMP-13): 12 nM; IC50 (MMP-1): 62 nM; THP % inhibition @ 3 µM (THP-1 cells; 3 µM): 90%; IC50 (TACE; read-out: TACE IC50): 212 nM |
| CC#CCOc1ccc(S(=O)(=O)N2CCSC(C)(C)C2C(=O)NO)cc1 (stereo not drawn) [235, 38] |  | IC50 (MMP-1): 6.6 nM; inhibition at 3 µM (THP-1 cells; [1]): 94%; IC50 (TACE; read-out: TACE IC50): 8.4 nM |
| CC#CCOc1ccc(S(=O)(=O)N(C)CC(=O)NO)cc1 [Example 17, 2-[(4-But-2-ynyloxy-benzenesulfonyl)-methyl-amino]-N-hydroxy-acetamide] |  | IC50 (MMP-13): 99 nM; IC50 (MMP-1): 1900 nM; inhibition at 3 µM (THP-1 cells; [1]): 33% |
| CC#CCOc1ccc(S(=O)(=O)N[C@@H](C)C(=O)NO)cc1 [Example 62B, L-2-(4-But-2-ynyloxy-benzenesulfonylamino)-N-hydroxy-propionamide] |  | inhibition at 1 µM (TACE): 46.2% |
| CC#CCOc1ccc(S(=O)(=O)N[C@@H](CC)C(=O)NO)cc1 [Example 63] | 47.6% |  |
| CC#CCOc1ccc(S(=O)(=O)N[C@@H](CCCNC(=N)N)C(=O)NO)cc1 [Example 64] | 67.4% |  |
| CC#CCOc1ccc(S(=O)(=O)N[C@@H](CCCNC(N)=NS(=O)(=O)c2ccc(C)cc2)C(=O)NO)cc1 [Example 65] | 102% |  |
| CC#CCOc1ccc(S(=O)(=O)N[C@@H](CC(N)=O)C(=O)NO)cc1 [Example 66] | 45.6% |  |
| CC#CCOc1ccc(S(=O)(=O)N[C@@H](CC(=O)O)C(=O)NO)cc1 [Example 67] | 46.2% |  |
| CC#CCOc1ccc(S(=O)(=O)N[C@@H](CC(=O)OC2CCCCC2)C(=O)NO)cc1 [Example 68] | 70.4% |  |
| CC#CCOc1ccc(S(=O)(=O)NCCC(=O)NO)cc1 [Example 69] |  | inhibition at 1 µM (TACE): 48.5% |
| CC#CCOc1ccc(S(=O)(=O)N[C@@H](CCN)C(=O)NO)cc1 [Example 70] | 21.1% |  |
| CC#CCOc1ccc(S(=O)(=O)N[C@@H](CC2CCCCC2)C(=O)NO)cc1 [Example 71] | 86.7% |  |
| CC#CCOc1ccc(S(=O)(=O)N[C@H](C(=O)NO)C2CCCCC2)cc1 [Example 72] | 57.4% |  |
| CC#CCOc1ccc(S(=O)(=O)N[C@@H](CSC(C)(C)C)C(=O)NO)cc1 [Example 73] | 79% | IC50 (TACE; [3]): 451 ± 31 nM |
| CC#CCOc1ccc(S(=O)(=O)N[C@@H](CSCc2ccc(OC)cc2)C(=O)NO)cc1 [Example 74] | 73.8% |  |
| CC#CCOc1ccc(S(=O)(=O)N[C@H](C(=O)NO)[C@@H](C)O)cc1 [Example 100] |  | inhibition at 1 µM (TACE): 15.4% |
| CC#CCOc1ccc(S(=O)(=O)N[C@H](C(=O)NO)C(C)C)cc1 [Example 104] |  | inhibition at 1 µM (TACE): 38.5% |
| CC#CCOc1ccc(S(=O)(=O)N(CCCCN2CCN(C)CC2)C(C(=O)NO)C(C)C)cc1 (stereo not drawn) [Example 122, 2-{{[4-(2-Butynyloxy)phenyl]sulfonyl}[4-(4-methyl-1-piperazinyl)butyl]amino}-N-hydroxy-3-methylbutanamide] |  | inhibition at 3 µM (THP-1 cells; [1]): 69%; IC50 (TACE; read-out: TACE IC50): 126 nM |
| CC#CCOc1ccc(S(=O)(=O)N(C)C(C(=O)NO)c2ccc(OCCCNC(=O)OCc3ccccc3)cc2)cc1 (stereo not drawn) [Example 196, Benzyl3-{4-[1-[{[4-(2-butynyloxy)phenyl]sulfonyl}(methyl)amino]-2-(hydroxyamino)-2-oxoethyl]phenoxy}propylcarbamate] |  | MMP-1 %@1 (MMP-1; @1 (concentration unit not given)): 25%@1; inhibition at 3 µM (THP-1 cells; [1]): 87% |
| CC#CCOc1ccc(S(=O)(=O)N2CCSC(CC)(CC)C2C(=O)NO)cc1 (stereo not drawn) [Example 238] |  | IC50 (MMP-13): 6.8 nM; IC50 (MMP-1): 38 nM; inhibition at 3 µM (THP-1 cells; [1]): 73%; IC50 (TACE; read-out: TACE IC50): 228 nM |
| CC#CCOc1ccc(S(=O)(=O)N2C[C@H](CC(=O)NCCN(C)C)SC(C)(C)[C@@H]2C(=O)NO)cc1 [Example 284, (3S,6S)-4-{[4-(2-Butynyloxy)phenyl]sulfonyl}-6-(2-{[2-(dimethylamino)ethyl]amino}-2-oxoethyl)-N-hydroxy-2,2-dimethyl-3-thiomorpholinecarboxamide] |  | inhibition at 3 µM (THP-1 cells; [4]): 88% |
| CC#CCOc1ccc(S(=O)(=O)N2CSC(C)(C)[C@@H]2C(=O)NO)cc1 [Example 286, (4S)-3-{(4-(2-Butynyloxy)phenyl]sulfonyl}-N-hydroxy-5,5-dimethyl-1,3-thiazolidine-4-carboxamide] |  | inhibition at 3 µM (THP-1 cells; [4]): 73% |
| CC#CCOc1ccc(S(=O)(=O)N2CCN(C(=O)c3ccccc3)CCC2C(=O)NO)cc1 (stereo not drawn) [Example 289, 1-Benzoyl-4-{[4-(2-butynyloxy)phenyl]sulfonyl}-N-hydroxy-1,4-diazepane-5-carboxamide] |  | IC50 (MMP-13): 4 nM |
| CC#CCOc1ccc(S(=O)(=O)N2CCNCCC2C(=O)NO)cc1 (stereo not drawn) [Example 292, 4-{[4-(2-Butynyloxy)phenyl]sulfonyl}-N-hydroxy-1,4-diazepane-5-carboxamide] |  | inhibition at 3 µM (THP-1 cells; [4]): 83% |
| CC#CCOc1ccc(S(=O)(=O)N2CCN(C)CCC2C(=O)NO)cc1 (stereo not drawn) [Example 293, 4-{[4-(2-Butynyloxy)phenyl]sulfonyl}-N-hydroxy-1-methyl-1,4-diazepane-5-carboxamide] |  | IC50 (MMP-13): 21 nM; inhibition at 3 µM (THP-1 cells; [4]): 82% |
| CC#CCOc1ccc(S(=O)(=O)N[C@H](Cc2ccc(F)c(F)c2)C(=O)NO)cc1 [Example 315] |  | IC50 (TACE; [3]): 5.7 nM |
| CC#CCOc1ccc(S(=O)(=O)N[C@H](CCCNC(=O)Oc2ccc(OC)cc2)C(=O)NO)cc1 [Example 372, 4-Methoxyphenyl (4R)-4-({[4-(but-2-ynyloxy)phenyl]sulfonyl}amino)-5-(hydroxyamino)-5-oxopentylcarbamate] |  | IC50 (TACE): 8.4 nM |
| CC#CCOc1ccc(S(=O)(=O)N2C=CSC(C)(C)[C@@H]2C(=O)NO)cc1 [Example 379, (3S)-4-{[4-(2-Butynyloxy)phenyl]sulfonyl}-N-hydroxy-2,2-dimethyl-3,4-dihydro-2H-1,4-thiazine-3-carboxamide] |  | inhibition at 3 µM (THP-1 cells; [4]): 85% |

Continued, in another order:

| inhibition at 1 µM (TACE; [2]) | Compound | also measured |
| --- | --- | --- |
| 55.8% | CC#CCOc1ccc(S(=O)(=O)N[C@H](CC(N)=O)C(=O)NO)cc1 [Example 75] |  |
| 29.7% | CC#CCOc1ccc(S(=O)(=O)N[C@H](CCCN)C(=O)NO)cc1 [Example 76] |  |
| 105% | CC#CCOc1ccc(S(=O)(=O)N[C@H](CC2CCCCC2)C(=O)NO)cc1 [Example 77] |  |
| 101% | CC#CCOc1ccc(S(=O)(=O)N[C@@H](C(=O)NO)C2CCCCC2)cc1 [Example 78] |  |
| 107% | CC#CCOc1ccc(S(=O)(=O)N[C@H](CC(C)C)C(=O)NO)cc1 [Example 79] | IC50 (TACE; [3]): 5.7 ± 2.5 nM |
| 105% | CC#CCOc1ccc(S(=O)(=O)N[C@H](CCSC)C(=O)NO)cc1 [Example 80] |  |
| 106% | CC#CCOc1ccc(S(=O)(=O)N[C@H](Cc2ccccc2)C(=O)NO)cc1 [Example 81] |  |
| 98.4% | CC#CCOc1ccc(S(=O)(=O)N2CCC[C@@H]2C(=O)NO)cc1 [Example 82] |  |
| 105% | CC#CCOc1ccc(S(=O)(=O)N[C@H](Cc2c[nH]c3ccccc23)C(=O)NO)cc1 [Example 83] |  |
| 101% | CC#CCOc1ccc(S(=O)(=O)N[C@H](Cc2ccc(O)cc2)C(=O)NO)cc1 [Example 84] |  |
| 37.5% | CC#CCOc1ccc(S(=O)(=O)N[C@@H](CCC(=O)O)C(=O)NO)cc1 [Example 86] |  |
| 47.8% | CC#CCOc1ccc(S(=O)(=O)N[C@@H](Cc2cnc[nH]2)C(=O)NO)cc1 [Example 87] |  |
| 8.4% | CC#CCOc1ccc(S(=O)(=O)N2C[C@H](OCc3ccccc3)C[C@H]2C(=O)NO)cc1 [Example 88] |  |
| 56.8% | CC#CCOc1ccc(S(=O)(=O)N[C@H](C(=O)NO)[C@@H](C)CC)cc1 [Example 89] |  |
| 58.9% | CC#CCOc1ccc(S(=O)(=O)N[C@@H](CC(C)C)C(=O)NO)cc1 [Example 90] |  |
| 102% | CC#CCOc1ccc(S(=O)(=O)N[C@@H](CCCCN)C(=O)NO)cc1 [Example 92] |  |
| 61.7% | CC#CCOc1ccc(S(=O)(=O)N[C@@H](CCCC)C(=O)NO)cc1 [Example 93] |  |
| 38.2% | CC#CCOc1ccc(S(=O)(=O)N[C@@H](Cc2ccccc2)C(=O)NO)cc1 [Example 94] |  |
| 98.6% | CC#CCOc1ccc(S(=O)(=O)N[C@H](C(=O)NO)c2ccccc2)cc1 [Example 95] |  |
| 22% | CC#CCOc1ccc(S(=O)(=O)N[C@@H](CSCNC(C)=O)C(=O)NO)cc1 [Example 96] |  |
| 67.5% | CC#CCOc1ccc(S(=O)(=O)N[C@@H](COCc2ccccc2)C(=O)NO)cc1 [Example 97] |  |
| 2.5% | CC#CCOc1ccc(S(=O)(=O)N[C@@H](CO)C(=O)NO)cc1 [Example 98] |  |
| 28.5% | CC#CCOc1ccc(S(=O)(=O)N[C@H](C(=O)NO)[C@@H](C)OCc2ccccc2)cc1 [Example 99] |  |
| 30.2% | CC#CCOc1ccc(S(=O)(=O)N[C@@H](Cc2c[nH]c3ccccc23)C(=O)NO)cc1 [Example 101] |  |
| 27.3% | CC#CCOc1ccc(S(=O)(=O)N[C@@H](Cc2ccc(O)cc2)C(=O)NO)cc1 [Example 102] |  |
| 52.8% | CC#CCOc1ccc(S(=O)(=O)N[C@@H](Cc2ccc(OCc3ccccc3)cc2)C(=O)NO)cc1 [Example 103] |  |
| 40% | CC#CCOc1ccc(S(=O)(=O)N[C@H](CC(=O)O)C(=O)NO)cc1 [Example 298] |  |
| 3% | CC#CCOc1ccc(S(=O)(=O)N[C@H](CSCc2ccc(OC)cc2)C(=O)NO)cc1 [Example 302] |  |
